Literature values, collected in US20130137759A1, “COMPOSITIONS AND METHODS FOR TREATING PARASITIC DISEASE” (Worcester Polytechnic Institute, priority 2010, published 2013).
Each block holds one compound with its values, some of them ahead of it.

Experiments:
[1] = rats, intragastric in 1:9 dimethyl-acetamide-oil, 10 mg kg^−1 (2,320 μg per rat)

Plasma/serum concentration Artemisinin Cmax [1]: 800 ng/mL
SMILES: C[C@H]1[C@@H](O)O[C@@H]2O[C@@]3(C)CC[C@H]4[C@H](C)CC[C@@H]1[C@@]24OO3 [dihydroartemisinin]

SMILES: COc1cc2oc(-c3ccc(O)c(O)c3)c(OC)c(=O)c2c(O)c1OC [chrysosplenol-D]
effect on AN activity against P. falciparum (P. falciparum; combined with pure AN): significant enhancement of AN activity
direct effect on P. falciparum (P. falciparum; flavonoid alone): no direct effect

half-life (healthy male volunteers): 1 to 3 h
tmax (humans, pure AN (Rath et al. 2004)): 2.3 h
SMILES: C[C@@H]1CC[C@H]2[C@@H](C)C(=O)O[C@@H]3O[C@@]4(C)CC[C@@H]1[C@]32OO4 [artemisinin]
